Source: US7053050B2, “Preventives/remedies for proliferative organ diseases chronic arthritic diseases, hypertrophic scar or keloid” (Yoshiko Yasuda, priority 2001, dated 2006)

Tested on: malignant melanoma cell strains (P39) tumor
Experiment: Heterotransplantation of malignant melanoma cells in nude mice; PCNA and CD31 staining of the excised tumor
Assay type: in vivo, nude mice (Balb/c Jcl-nu)
Description: EMP9 was synthesized by a known method and dissolved in saline. The solution was colored with addition of Evans blue at the final concentration of 0.25%.
Five-week old nude mice (Balb/c Jcl-nu, Japan Clea Inc.) were purchased, maintained in a germfree chamber for a week for acclimatization and then used. 5×10^6 cells of malignant melanoma cell strains (P39, Utsumi and Elkind, 1993) were suspended in a culture solution (0.1 ml) and the suspension was injected subcutaneously interscapularly into the mice. After a few weeks, formation of tumor was observed on the outer skin surface. The major axis×minor axis×height of the tumor was measured twice a week. The tumor was observed until its size became 6×7×7 mm, thereafter administration was started. After the administration, the size of the tumor was measured in a similar manner.
Four doses of 0.1 ml of a 0.5 mg/ml EMP9 solution were administered intraperitoneally at intervals of 1 hr. After 24 hr and 48 hr, 0.1 ml of the solution was administered similarly 4 times, respectively. On the 7th day from the first administration, the tumor was excised.
The excised tumor was fixed in Zamboni fixing liquid or frozen in liquid nitrogen. The tumor fixed in Zamboni fixing liquid was divided into several tissue masses. The plural samples collected from the respective masses were embedded to prepare tissue sections thereof. The proliferating cells were stained using PCNA antibody and the vascular endothelial cells were stained using CD31 antibody, respectively. Hematoxylin was used for nuclear staining. Each of the section specimens was observed under a microscope at 200-fold magnification. The cell number in 20 compartments wherein one compartment has an area of 17.6×10^−3 mm^2 was counted (the cell number was not less than 4,500). The cell proliferation ratio was calculated from the following equation and represented in [Table 1]. Furthermore, the number of blood vessel in 100 compartments was counted, and the average number per a compartment (13.1×10^−2 mm^2) was calculated and represented in [Table 1]. […]

In the case of “erythropoietin mimetic peptide 9 (GGTYSCHFAPLTWVCKPQGG) [EMP9, erythropoietin receptor antagonist]”, the “Proliferation ratio (%)” value (P39 melanoma tumor in nude mice, 0.1 ml of 0.5 mg/ml EMP9 intraperitoneally 4 times at 1 hr intervals, repeated after 24 hr and 48 hr, tumor excised on 7th day, PCNA staining, proliferating cells/living cells x100) is reported as 3.03%, the “Inhibitory effects on tumor proliferation and neovascular proliferation (conclusion in words)” value (conclusion from Table 1, significant difference versus saline group (p<0.05)) is reported as “superior inhibitory effects on both tumor proliferation and neovascular proliferation” and the “Number of blood vessel (average ± standard error)” value (same regimen, CD31 staining, average number per compartment (13.1×10^−2 mm^2), 100 compartments counted) is reported as 0.64 ± 0.10.
